Test results reported in patent US9045445B2, “Glycine transporter-1 inhibitors, methods of making them, and uses thereof” (Albany Molecular Research, Inc., priority 2010, dated 2015).

What was measured:
[1] = target: T1, glycine transporter-1 (GlyT-1) (Homo sapiens, UniProt P48067); assay: [14C]glycine uptake assay in JAR cells endogenously expressing GlyT-1 (scintillation proximity); type: cell-based; conditions: JAR cells, [14C]glycine 5 μM, 3 hour incubation; read-out: GlyT-1 IC50
T1 construct: JAR cells (ATCC#HTB-144), which endogenously express GlyT-1; host or cells: JAR human choriocarcinoma cells
T1 sequence (P48067 1-706): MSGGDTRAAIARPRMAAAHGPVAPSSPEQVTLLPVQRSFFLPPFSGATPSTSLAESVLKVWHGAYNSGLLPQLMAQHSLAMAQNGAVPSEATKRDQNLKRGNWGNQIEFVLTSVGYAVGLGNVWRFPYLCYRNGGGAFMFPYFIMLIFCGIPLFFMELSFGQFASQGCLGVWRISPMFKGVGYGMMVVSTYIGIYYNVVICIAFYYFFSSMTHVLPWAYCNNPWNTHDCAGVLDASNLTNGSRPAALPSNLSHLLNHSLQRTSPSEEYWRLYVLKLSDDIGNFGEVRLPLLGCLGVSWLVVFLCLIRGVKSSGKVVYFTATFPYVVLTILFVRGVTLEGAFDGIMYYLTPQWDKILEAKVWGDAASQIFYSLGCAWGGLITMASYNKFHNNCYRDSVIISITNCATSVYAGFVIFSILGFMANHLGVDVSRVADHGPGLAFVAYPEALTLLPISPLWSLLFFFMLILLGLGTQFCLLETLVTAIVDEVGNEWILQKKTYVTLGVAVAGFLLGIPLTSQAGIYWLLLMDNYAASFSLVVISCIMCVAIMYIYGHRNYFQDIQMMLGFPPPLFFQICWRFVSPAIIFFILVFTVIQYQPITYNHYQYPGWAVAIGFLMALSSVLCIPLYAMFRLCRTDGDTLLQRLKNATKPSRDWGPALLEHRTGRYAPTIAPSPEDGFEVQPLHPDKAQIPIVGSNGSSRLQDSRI
Summary of the method: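 Human choriocarcinoma JAR cells (endogenous GlyT-1) attached overnight, then pre-incubated 10 min at room temperature with compound in pH 7.4 Hepes uptake buffer containing 5 mM alanine and 0.75% DMSO. Uptake of 5 μM [14C]glycine over 3 h at 37 °C read by scintillation proximity; IC50 from four-parameter fit of nine-point curves.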

melting point [°C] | IC50 [1] [nM] | SMILES
80 to 82 | 24 | CC(O)CS(=O)(=O)N1CCN(C2(CNC(=O)c3ccc(C(F)(F)F)cc3Cl)CCC(F)(F)CC2)CC1.Cl (single isomer, unassigned; enantiomer a) [compound 278, (Enantiomer A)-2-Chloro-N-((4,4-difluoro-1-(4-(2-hydroxypropylsulfonyl)piperazin-1-yl)cyclohexyl)methyl)-4-(trifluoromethyl) benzamide Hydrochloride]
147 | 8 | Cl.Cn1cc(S(=O)(=O)N2CCN(C3(CNC(=O)c4ccc(C(F)(F)F)cc4Cl)CCOCC3)CC2)nn1 [compound 277, 2-Chloro-N-((4-(4-(1-methyl-1H-1,2,3-triazol-4-ylsulfonyl)piperazin-1-yl)tetrahydro-2H-pyran-4-yl)methyl)-4-(trifluoromethyl)benzamide Hydrochloride]
180 to 185 | 284 | Cl.Cn1cnc(S(=O)(=O)N2CCN(C3(CNC(=O)c4ccc(C(F)(F)F)cc4Cl)CCC(F)(F)CC3)CC2)n1 [compound 281, 2-Chloro-N-((4,4-difluoro-1-(4-(1-methyl-1H-1,2,4-triazol-3-ylsulfonyl)piperazin-1-yl)cyclohexyl)methyl)-4-(trifluoromethyl)benzamide Hydrochloride]
